The subject of assay [1] is TLR7/8. The experiment in a line: Whole blood assay, stimulation with TLR7/8 agonist R848 (resiquimod). Format: cell-based, human. As to conditions: challenged with TLR7/8 agonist R848. As to the method:
(§1) Whole blood assay: Blood was drawn from healthy donors into Vacutainer tubes with EDTA (BD Biosciences) and assay was performed within 2 hr. Four parts blood were diluted with one part PBS and 150 μl/well was dispensed into 96-well plates. Compound dilutions were added in triplicate and plates were incubated at 37° C. 5% CO2 for 30 min. For TLR7/8 testing, R848 (resiquimod) was added to 1 μM, for TLR7, the TLR7 selective agonist shown below was added to 3 μM and for TLR8, the TLR8 selective agonist shown below was added to 0.5 μM. Plates were incubated overnight 37° C. 5% CO2 and cytokines were measured in the plasma by AlphaLISA.
(§2) IL-6, TNF-alpha and IFN-alpha were measured in plasma 16 h later.

Assay [2] addresses T1, TLR8 (Homo sapiens, UniProt Q9NR97).
T1 construct: Blood was drawn from healthy donors into Vacutainer tubes with EDTA; endogenous in cells; host or cells: human whole blood (healthy donors)
T1 sequence (Q9NR97 27-1041): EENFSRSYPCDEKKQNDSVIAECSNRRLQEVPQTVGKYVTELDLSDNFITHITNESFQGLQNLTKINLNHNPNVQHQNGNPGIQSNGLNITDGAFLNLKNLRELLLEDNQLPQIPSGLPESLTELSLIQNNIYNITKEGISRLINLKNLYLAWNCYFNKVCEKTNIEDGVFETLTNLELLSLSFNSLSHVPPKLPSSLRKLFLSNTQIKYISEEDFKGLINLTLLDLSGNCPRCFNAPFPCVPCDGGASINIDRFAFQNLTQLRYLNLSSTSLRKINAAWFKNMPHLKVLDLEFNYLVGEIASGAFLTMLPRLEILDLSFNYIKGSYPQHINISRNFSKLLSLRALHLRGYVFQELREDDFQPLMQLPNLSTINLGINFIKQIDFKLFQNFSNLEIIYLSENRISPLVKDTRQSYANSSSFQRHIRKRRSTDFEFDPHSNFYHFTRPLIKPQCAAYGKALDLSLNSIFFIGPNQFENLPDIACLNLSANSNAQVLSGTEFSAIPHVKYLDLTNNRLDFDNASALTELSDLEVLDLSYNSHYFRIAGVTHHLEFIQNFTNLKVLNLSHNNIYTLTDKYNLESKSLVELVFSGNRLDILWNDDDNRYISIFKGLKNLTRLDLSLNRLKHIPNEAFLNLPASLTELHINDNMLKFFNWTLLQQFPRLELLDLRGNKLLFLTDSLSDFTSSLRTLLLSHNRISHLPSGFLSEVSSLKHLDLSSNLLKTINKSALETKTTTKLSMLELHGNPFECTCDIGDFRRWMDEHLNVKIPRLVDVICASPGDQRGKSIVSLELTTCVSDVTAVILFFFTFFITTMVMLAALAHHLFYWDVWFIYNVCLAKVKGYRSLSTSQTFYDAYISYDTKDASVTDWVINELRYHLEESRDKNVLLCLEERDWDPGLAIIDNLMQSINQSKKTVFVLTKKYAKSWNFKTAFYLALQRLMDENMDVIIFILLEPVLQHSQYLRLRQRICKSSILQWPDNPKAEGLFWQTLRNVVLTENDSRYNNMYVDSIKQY
The experiment in a line: Whole blood assay, stimulation with TLR8 selective agonist. Format: cell-based. As to conditions: for IFNα and IL-6 production: challenged with the TLR-8 agonist. The procedure:
as §1, §2

For assay [3], the target named is T2, TLR7 (Homo sapiens, UniProt Q9NYK1).
T2 construct: Blood was drawn from healthy donors into Vacutainer tubes with EDTA; endogenous in cells; host or cells: human whole blood (healthy donors)
T2 sequence (Q9NYK1 27-1049): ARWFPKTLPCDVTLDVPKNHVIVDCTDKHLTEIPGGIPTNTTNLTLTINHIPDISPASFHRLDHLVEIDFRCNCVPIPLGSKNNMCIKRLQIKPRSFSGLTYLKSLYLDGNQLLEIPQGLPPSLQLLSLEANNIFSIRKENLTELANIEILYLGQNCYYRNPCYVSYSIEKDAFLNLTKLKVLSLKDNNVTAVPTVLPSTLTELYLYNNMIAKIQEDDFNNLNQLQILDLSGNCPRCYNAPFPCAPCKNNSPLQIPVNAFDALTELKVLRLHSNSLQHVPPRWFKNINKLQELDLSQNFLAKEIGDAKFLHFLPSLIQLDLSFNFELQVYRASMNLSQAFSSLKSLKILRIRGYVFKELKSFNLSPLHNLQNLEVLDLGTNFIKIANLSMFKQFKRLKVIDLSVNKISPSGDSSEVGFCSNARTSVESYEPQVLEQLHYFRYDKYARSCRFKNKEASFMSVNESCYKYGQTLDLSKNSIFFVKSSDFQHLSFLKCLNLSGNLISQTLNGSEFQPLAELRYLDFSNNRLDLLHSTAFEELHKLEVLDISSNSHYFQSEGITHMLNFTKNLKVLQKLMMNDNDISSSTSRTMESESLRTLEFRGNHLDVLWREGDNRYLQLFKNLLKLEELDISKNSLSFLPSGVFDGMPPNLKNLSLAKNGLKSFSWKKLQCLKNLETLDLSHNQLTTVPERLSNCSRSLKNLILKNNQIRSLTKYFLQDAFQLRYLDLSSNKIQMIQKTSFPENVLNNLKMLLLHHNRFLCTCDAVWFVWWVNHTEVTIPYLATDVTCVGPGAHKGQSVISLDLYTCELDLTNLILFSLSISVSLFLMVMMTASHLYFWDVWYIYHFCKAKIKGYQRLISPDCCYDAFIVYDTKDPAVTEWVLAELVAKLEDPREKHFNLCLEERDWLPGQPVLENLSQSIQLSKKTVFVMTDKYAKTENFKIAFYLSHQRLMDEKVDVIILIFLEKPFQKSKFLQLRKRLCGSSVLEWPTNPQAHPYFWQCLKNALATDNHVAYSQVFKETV
Briefly: Whole blood assay, stimulation with TLR7 selective agonist. In kind it is cell-based. As to conditions: for IFNα and IL-6 production: challenged with the TLR-7 agonist. As to the method: as §1, §2
The TLR 7 agonist used in the above experiment was: […]

The subject of assay [4] is BXSB-Yaa mice. Briefly: BXSB-Yaa mouse lupus model.
For assay [5], the system named is TLR7 and TLR8. The experiment in a line: Phase I healthy volunteer study, ex vivo-stimulated cytokine secretion. In kind it is in vivo, human. As to conditions: exposure-dependent manner.
Assay [6] concerns C57BL/6 mice. The experiment in a line: C57BL/6 mice dosed i.v. with miR-122, plasma cytokines and lung gene signatures. In kind it is in vivo. As to conditions: for lung IFN gene signature score: FIG. 9A; for plasma levels of IFNα: 0.1, 1, 10 mg/kg p.o., P<0.0074 for all concentrations, FIG. 8A; for plasma levels of IFNα / plasma levels of IL-6: 4 hours after miR-122; for plasma levels of IL-6: p.o., P=0.0237 at 1 mg/kg, P=0.0147 at 10 mg/kg, FIG. 8B. As to the method:
Healthy female C57BL/6 mice were dosed with vehicle (0.1 M Na citrate pH 3.0) or increasing doses (0.1, 1, 10 mg/kg) of M5049 p.o. After 30 min, mice were dosed with a single i.v. injection of 2 mg/kg miR-122 (Sigma) complexed with Invivofectamine (Life Technologies). At 4 hours after miRNA dosing, mice were euthanized and blood was collected for cytokine analysis in plasma and lungs were collected for gene expression analysis. IFN-α and IL-6 were measured in the plasma samples by Alphalisa (Perkin Elmer). Lungs were homogenized using the OctoMacs and M tubes (Qiagen) in RLT buffer and RNA was extracted using the RNEasy mini kit (Qiagen). Gene expression analysis was performed using a custom NanoString panel. Gene signature scores were determined by calculating the Log 2 fold change versus vehicle alone and then using the median Log 2 fold change for all genes on the signature as the signature score for each mouse. Genes used for the IFN gene signature were: OAS1, OAS2, OAS3, OASL, BST2, CMPK2, GBP5, HERC6, IFI44, IFIT1, IFIT2, IFIT3, IFIH1, CXCL10, ISG15, MX1, MX2, STAT1, TNFSF10, USP18, RSAD2, and IRF7. Genes used for the NF-kB gene signature were: IL1RN, TNFAIP3, CSF1, IRF1, IL1B, IL6, NFKBIA, PTGS2, TAP1, and TNF. […] Administration of miR-122 lead to an increase of both, the IFN and NFkB gene signature scores indicating local lung inflammation.

For assay [7], the system named is TLR7/8. The experiment in a line: Cytokine inhibition in mice challenged with TLR agonist.
In assay [8] the test system is PBMCs. Briefly: PBMCs stimulated with GU-rich RNA oligonucleotides, cytokines by AlphaLISA. Format: cell-based, human. As to conditions: RNA oligonucleotides 26 μg/ml, overnight; for concentration of IFN-alpha after stimulation: FIG. 7A; for concentration of IL-6 after stimulation: FIG. 7B; for concentration of TNF-alpha after stimulation: FIG. 7C. As to the method: Blood was drawn from healthy donors and PBMCs isolated using gradient centrifugation. PBMCs were dispensed into 96-well plates and M5049 dilutions were added in triplicate to selected wells. Plates were incubated at 37° C. and 5% CO2 for 30 minutes. Then, RNA oligonucleotides were added to the cells at a concentration of 26 μg/ml for stimulation. The treated PBMCs were incubated overnight at 37° C. and 5% CO2, and IFNa, TNFa and IL-6 in the supernatant were measured the next day by AlphaLISA.

With `COc1ncc(N2C[C@@H](C)C[C@@H](N)C2)c2cccnc12` [Compound 4, (3R,5S)-1-(8-Methoxy-[1,7]naphthyridin-5-yl)-5-methyl-piperidin-3-ylamine], the “IFNα and IL-6 production” value in assay [1], in assay [2] and in assay [3] was “dose-dependently decreases” in each case.
With `N#Cc1ccc(N2C[C@H](N)C[C@H](C(F)(F)F)C2)c2cccnc12` (single isomer, unassigned) [Compound 3], the survival result in assay [4] (BXSB-Yaa mice, once per day oral gavage, FIG. 3A) is “dose-dependent improvement in survival”. In assay [4] (BXSB-Yaa mice, oral gavage, FIG. 3B, 3C), the “kidney disease (proteinuria)” value is “reduction in kidney disease”. Moreover, the “type I IFN response (blood IFN gene signature score)” value in assay [4] (BXSB-Yaa mice, only seen at high doses, FIG. 3D) is listed as “inhibited”. Further, in assay [4] (oral gavage), the “disease in mouse lupus models” value is “reduces disease”. Besides, in assay [5], the “secretion of ex vivo-stimulated cytokines including IL-6, TNFα, and IFNα” value is “suppressed”. Moreover, the “lung IFN gene signature score” value in assay [6] (10 mg/kg) is “complete reduction of IFN”; in assay [6] (1 and 10 mg/kg p.o., P<0.01), “reduced both gene signature scores”. The results for the “plasma levels of IFNα” value in assay [6] and in assay [6] (listed as M5049) were “reduction” and “significantly reduced”, respectively. Besides, the “lung NFkB gene signature score” value in assay [6] (1 and 10 mg/kg p.o., P<0.01, FIG. 9B) was “reduced both gene signature scores”. In addition, the “plasma levels of IL-6” value in assay [6] (10 mg/kg) is listed as “reduction”; in assay [6] (listed as M5049, 10 mg/kg), “significantly reduced”. The IL-6 inhibition in assay [7] (low doses (0.1 mg/kg)) was determined as 100%. Besides, the IFNα inhibition entry in assay [7] (same concentration (0.1 mg/kg)) is listed as “only partial”. The “IFNα and IL-6 production” value in assay [1], in assay [2] and in assay [3] was “dose-dependently decreases” in each case. Also, the “production of IL-6 and TNF-alpha” value in assay [2] (samples stimulated with TLR 8 agonist, vs. hydroxychloroquine, FIG. 2B) is listed as “significantly reduces the amount of the cytokines”; in assay [3] (samples stimulated with TLR 7 agonist, vs. hydroxychloroquine, FIG. 2A), “significantly reduces the amount of the cytokines”. The “concentration of IFN-alpha after stimulation” value in assay [8] is listed as “significant reduction”; in assay [8] (listed as M5049), “significantly suppresses”. The “concentration of IL-6 after stimulation” value in assay [8] was “significant reduction”; in assay [8] (listed as M5049), “significantly suppresses”. For the same molecule, the “concentration of TNF-alpha after stimulation” value in assay [8] is given as “significant reduction”; in assay [8] (listed as M5049) it was “significantly suppresses”.

For the origin of these results see US20240024308A1, “TLR7/8 ANTAGONISTS FOR THE TREATMENT OF CORONAVIRUS INFECTIONS” (Merck Healthcare KGaA, priority 2020, published 2024).
